Reference: patent US12226386B2, “Compositions and methods for treating biofilms” (The Regents of the University of California, priority 2018, dated 2025)

What was measured:
[1] = system: S. aureus (MRSA) biofilms; experiment: in vitro sustained inhibition biofilm assay, bacterial; assay type: cell-based, Staphylococcus aureus
Protocol: In vitro biofilm formation was tested using two assays, sustained inhibition and disruption. Both assays assess biofilm formed on polystyrene plates. The first, tests the effects of amino acid solution on a developing biofilm, while the latter tests the effects of the solution on a pre-formed mature biofilm, both compared to media without supplemented amino acids.
Other amino acids in the blood of animals could combat bacterial and fungal biofilm and therefore may be useful in treating these bacterial and fungal infections that would lie on the external surfaces of infected animals such as humans and could also be used to combat these pathogens on instruments and surfaces that need to be treated. Two types of biofilm assays were performed: a sustained inhibition assay and a disruption assay. The sustained inhibition assay assessed the compound's ability to prevent biofilm development throughout all stages of biofilm formation, while the disruption assay assessed the compound's ability to break up an existing mature biofilm.
(§1) For fungal biofilm assays, all solutions were prepared in RPMI 1640 medium. All bacterial biofilm solutions were prepared in Tryptic Soy Broth (TSB), supplemented with 1% glucose (henceforth referred to as TSB-G). All subsequent procedures were performed in a manner that maintained sterility. A solution of each amino acid to be tested was prepared in weight to volume concentrations ranging from 0.1-5.0%. Amino acids were also tested in combinations. Compound solutions were homogenized with gentle agitation in the dark (4° C., 24 hours) before use.
Bacterial strains were streaked on Blood Agar plates (5% sheep blood in Tryptic Soy Agar) and incubated at 37° C. for 24 hours. A single colony from each strain to be tested was inoculated in a TSB broth and grown for 12 hours, at 37° C. shaking at 225 rpm. For the bacterial biofilm inhibition assays, 1 μL of saturated overnight cell culture was added to either 80 μL of TSB-G, or TSB-G supplemented with the amino acid compound solution to be tested, in a 384-well plate. The cells were allowed to adhere to the plate for 60 minutes at 37° C. without shaking. The media was carefully aspirated and 80 μL of TSB-G, or TSB-G supplemented with the amino acid compound solution was added to the plate. The plate was further incubated for 24 hours at 37° C. without shaking. Media was carefully aspirated and the biofilm was measured by optical density at 600 nm. Eight or twelve replicates were performed for each tested condition and the reported values are normalized to the control (TSB-G media only). For the bacterial biofilm disruption assays, 80 μL of TSB-G was added to the plate, along with 1 μL of overnight cell culture. The cells were allowed to adhere to the plate for 60 minutes at 37° C. with no shaking. The media was carefully aspirated and 80 μL of TSB-G was added to the plate. The plate was further incubated for 24 hours at 37° C. with no shaking. Media was carefully aspirated from the mature biofilm and 80 μL of TSB-G, or TSB-G supplemented with the amino acid to be tested, was gently added to the plate. The plate was further incubated for 24 hours at 37° C. without shaking. Media was aspirated and the biofilm was measured by optical density at 600 nm. Twelve replicates were performed for each tested condition and the reported values are normalized to the control (TSB-G media only).
For inhibition assay, 1 μl of overnight cell culture was added to either 80 μl of TSB-G, or TSB-G supplemented with the amino acid to be tested, in a 384-well plate. The cells were allowed to adhere to the plate for 60 minutes at 37° C. with no shaking. The media was carefully aspirated and 80 μl of TSB-G, or TSB-G supplemented with amino acid was added to the plate. The plate was further incubated for 24 hours at 37° C. with no shaking. Media was carefully aspirated and the biofilm was measured by optical density at 600 nm. […]

C. albicans biofilms = experiment: in vitro biofilm disruption assay, fungal; assay type: cell-based, Candida albicans; conditions: 1% amino acid, p<0.001
Protocol: Two types of biofilm assays were performed: a sustained inhibition assay and a disruption assay.
as §1
Fungal strains were streaked on Yeast Peptone Dextrose (YPD) agar plates and incubated at 30° C. for 48 hours. A single colony from each strain to be tested was inoculated into YPD broth and grown for 12 hours, at 30° C., shaking at 225 rpm. For the fungal biofilm inhibition assay, 1 μl of saturated overnight cell culture was added to either 80 μL of RPMI-1640 or RPMI-1640 supplemented with the amino acid compound solution to be tested, in a 384-well plate. […] Media was carefully aspirated and the biofilm was measured by optical density at 600 nm. Twelve replicates were performed for each tested condition and the reported values are normalized to the control (RPMI-1640 media only). For the fungal biofilm disruption assays, 80 μL of RPMI-1640 was added to the plate, along with 1 μL of overnight cell culture. […] Loosely bound cells were washed once with PBS and 80 μL of RPMI-1640 was added to the plate. […] Media was carefully aspirated from the mature biofilm and 80 μL of RPMI-1640, or RPMI-1640 supplemented with the amino acid compound solution to be tested, was gently added to the plate. […] Media was carefully aspirated and the biofilm was measured by optical density at 600 nm. Twelve replicates were performed for each tested condition and the reported values are normalized to the control (RPMI-1640 media only).
The cells were allowed to adhere to the plate for 90 minutes at 37° C. with shaking (350 rpm). […] The plate was further incubated for 24 hours at 37° C. with shaking (350 rpm). […] The plate was further incubated for 24 hours at 37° C. with shaking (350 rpm). Media was carefully aspirated and the biofilm was measured by optical density at 600 nm.

[2] = sustained inhibition, S. aureus, 1% amino acid, p<0.001

| Structure (SMILES) | Reduce B Biofilm [1, 2] | Reduce F Biofilm (C. albicans biofilms) | Reduce B Biofilm ([1]; MRSA) |
| --- | --- | --- | --- |
| N[C@@H](CC(=O)O)C(=O)O [Aspartic Acid, L-aspartic acid] | ●● (two dots [i.e. ●●] signifies major effect (greater than about 30% change)) | ●● (two dots [i.e. ●●] signifies major effect (greater than about 30% change)) | – |
| N[C@@H](CS)C(=O)O [Cysteine, L-cysteine] | ●● (two dots [i.e. ●●] signifies major effect (greater than about 30% change)) | ●● (two dots [i.e. ●●] signifies major effect (greater than about 30% change)) | – |
| N[C@@H](CCC(=O)O)C(=O)O [Glutamic Acid, L-glutamic acid] | – | ●● (two dots [i.e. ●●] signifies major effect (greater than about 30% change)) | ●● (two dots [i.e. ●●] signifies major effect (greater than about 30% change)) |
